# Experiments:
# [1] = Reduction with ascorbic acid monitored by RP-HPLC and 1H-NMR; format: physicochemical; conditions: 1 mM complex, 10 equivalents ascorbic acid, phosphate buffer pH = 7.4
# Method: As one explanation of the observed differences between the compounds might be altered reducibility, we investigated the reduction rate in the presence of ascorbic acid in phosphate-buffered solution at pH = 7.4 using NMR spectroscopy and HPLC measurements. To reduce the number of additional signals from hydrolyzed maleimide species in the spectra, only the succinimide-functionalized compounds 9–10 and 13–14 were evaluated in these experiments (Fig. 7 and S6 ^†). For both NMR and HPLC measurements, the same complex concentrations (1 mM) and 10 equivalents ascorbic acid were used. […] Overall, there is a strong correlation between the reduction data and the in vivo activity. As such, the fast reduction of the cisplatin derivatives correlates with the low in vivo activity of 8 and relatively low plasma levels after 24 h. […]
# 1 mM solutions of the succinimide derivatives 9– 10 and 13–14 in 100 mM phosphate buffer (pH=7.4) were freshly prepared, mixed with 10 mM solutions of ascorbic acid in 100 mM phosphate buffer (pH=7.4) and measured by RP-HPLC every hour for up to 24 h. […] The reduction of the compound was monitored via UV-VIS detector at 225 nm and evaluated by the decrease of the initial compound peak area. […]
# [2] = target: T1, albumin fraction of fetal calf serum (Bos taurus, UniProt P02769); experiment: Binding studies in fetal calf serum by SEC-ICP-MS; format: in vitro ADME; conditions: 37 °C
# T1 construct: from tissue; host or cells: fetal calf serum (whole serum)
# T1 sequence (P02769 25-607): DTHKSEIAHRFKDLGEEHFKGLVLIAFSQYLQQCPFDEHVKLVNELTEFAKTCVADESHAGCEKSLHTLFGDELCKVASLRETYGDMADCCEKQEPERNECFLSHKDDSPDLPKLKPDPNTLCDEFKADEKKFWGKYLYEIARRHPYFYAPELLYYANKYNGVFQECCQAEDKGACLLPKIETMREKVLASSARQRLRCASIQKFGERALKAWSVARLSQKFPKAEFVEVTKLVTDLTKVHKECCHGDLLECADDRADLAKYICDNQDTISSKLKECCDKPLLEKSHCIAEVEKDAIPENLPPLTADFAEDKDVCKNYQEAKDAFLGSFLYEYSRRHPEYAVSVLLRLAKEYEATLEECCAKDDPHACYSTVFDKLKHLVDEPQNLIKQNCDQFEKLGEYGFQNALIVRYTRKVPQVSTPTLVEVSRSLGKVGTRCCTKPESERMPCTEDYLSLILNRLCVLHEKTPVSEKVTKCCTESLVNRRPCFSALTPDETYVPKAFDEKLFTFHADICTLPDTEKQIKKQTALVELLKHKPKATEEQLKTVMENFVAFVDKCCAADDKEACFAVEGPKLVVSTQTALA
# Method: To ascertain the actual binding target, the binding rate and the stability of the formed species under biological conditions, the compounds were incubated with fetal calf serum at 37 °C and sulfur- and platinum-containing (macro)molecules were measured with size exclusion chromatography inductively coupled plasma mass spectrometry (SEC-ICP-MS) over 21 h. Already at the first scan (∼5–10 min after incubation) ∼50% of the maleimide-containing compounds 7–8 and 11–12 were bound to the albumin fraction at 7.6 min (see Table S11 ^† for the corresponding size ladder). At the next time point after 140 min, in all cases, >80% of the drug was bound to albumin. […] Thus, the fast as well as specific binding to serum albumin was verified. […]
# To determine the stability, especially of the maleimide-function, 0.5 mM solutions of the complexes were prepared in triple distilled water and measured repeatedly over several hours. For determination of the binding rate towards human serum albumin (HSA), freshly prepared 1 mM aqueous solutions of a compound and HSA were mixed 1:1 and also measured repeatedly over several hours. […] The loss of the complexes was monitored via UV-VIS detector at 225 nm and evaluated by the decrease of the compound […]
# For sample preparation compounds 7– 14 were incubated separately in FCS. […] The samples were then stored in the autosampler at 37°C for 21 h and analyzed […]
# [3] = Stability in aqueous solution by analytical RP-HPLC; format: physicochemical
# Method: The stability of the compounds in aqueous solution was monitored over several hours using analytical RP-HPLC. […] Thus, the hydrolysis can be clearly attributed to the maleimide moiety.
# (§1) RP-HPLC stability and binding studies
# (§2) To determine the stability, especially of the maleimide-function, 0.5 mM solutions of the complexes were prepared in triple distilled water and measured repeatedly over several hours. For determination of the binding rate towards human serum albumin (HSA), freshly prepared 1 mM aqueous solutions of a compound and HSA were mixed 1:1 and also measured repeatedly over several hours. All studies were carried out using a reversed-phase Waters XBridge C18 column on a Dionex Summit System. Milli-Q water, containing 0.1% formic acid, and methanol were used as eluents and a standard gradient from 5–95% methanol in 20 minutes was chosen. The autosampler, where the samples were incubated, was temperature controlled at 20°C and the column at 25°C. The loss of the complexes was monitored via UV-VIS detector at 225 nm and evaluated by the decrease of the compound […]
# (§3) For sample preparation compounds 7– 14 were incubated separately in FCS. […] The samples were then stored in the autosampler at 37°C for 21 h and analyzed
# [4] = Serum platinum levels 24 h after single treatment (SEC-ICP-MS and FI-ICP-MS); format: in vivo, BALB/c mice
# Text: It is well accepted that albumin targeting distinctly impacts on the plasma half-life time as well as tissue distribution.[36] Especially, the enhanced accumulation due to the EPR effect makes this form of tumor-targeting very interesting for the development of novel cancer therapeutics.[13] As our novel compounds have a double prodrug nature (albumin-binding and the need of activation by reduction), we were interested in the drug tissue distribution after treatment. To this end, male CT-26-bearing BALB/c mice were treated once with our compounds followed by sample collection 24 h later. […] In accordance to many other non-targeted drugs,[37]–[40] for both platinum(II) drugs the intratumoral drug levels were distinctly lower than in the liver and kidney (which usually have very high drug levels due to their important function in metabolism and excretion).
# Mice were treated once i.v. with 9 mg kg^–1 oxaliplatin and the equimolar concentrations in the case of 11 and 12 as well as 3 mg kg^–1 cisplatin and an equimolar dose in the case of 8. After 24 h, animals were anesthetized, sacrificed by heart puncture and tumor, liver, kidney tissue as well as serum were collected. Each experimental group contained four animals. (A) Organ platinum-distribution measured by ICP-MS. Data are expressed as mean ± standard deviation. (B) Platinum-SEC-ICP-MS measurements of serum samples (C) serum platinum levels measured by FI-ICP-MS. Data are expressed as mean ± standard deviation.
# Table S10 : Column recovery.
# Drug Conc. (µM) SD Column SD
# A protein/amino acid mix was prepared to assess the separation performance of the applied SEC-HPLC setup. The mixture contained HSA, myoglobin, GSSG, and methionine. It has to be mentioned that HSA is forming dimers over time. However, the separation of the monomer and the dimer of HSA cannot be resolved with this chromatographic column.
# Table S11 : Resulting size ladder.
# SEC-ICP-MS measurements of in vivo serum samples
# The ICP-QMS iCAP Thermo Scientific (Bremen, Germany) was used. Oxygen (purity 4.5, Linde Gas GmbH, Vienna, Austria) was used as reaction gas. The ICP-MS operation parameters are […]
# Table S12 : ICP-MS operation parameters.
# Nebulizer gas flow: 1.01 L/min
# Aux. gas flow: 0.80 L/min
# Plasma gas flow: 14 L/min
# Reaction gas (oxygen) flow: 0.370 mL/min
# As HPLC system a Thermo Scientific Transcend HPLC system (San Jose, CA, USA) was coupled to the ICP-QMS iCAP Thermo Scientific. Qtegra Intelligent Scientific Data Solution (version 2.4.1800.33) was employed for the data treatment. HPLC chromatographic conditions are […]
# Table S13 : Chromatographic conditions.
# HPLC column: BioBasic SEC-60 A, 4.6x250 mm, 5µm.
# Eluent: 50 mM CH3COONH4, pH = 6.0.
# Column Temperature: Room temperature
# Autosampler Temperature: 37°C […]
# CT-26 tumors = experiment: Histological evaluation (H/E) of apoptotic and mitotic cell fractions in CT-26 tumors; format: in vivo, BALB/c mice; conditions: tumors of male mice, day 12, H/E stain, counting
# Method: In order to better understand the observed differences in the activity of our compound panel, in a second experiment male CT-26-bearing animals were sacrificed on day 12 (24 h after the last treatment) and paraffin-embedded tumors were evaluated by H/E stain. […] In addition, as depicted in Fig. 5, the tumors of mice treated with 12 were clearly smaller than the ones of the other treatment groups. […] Furthermore, the histological evaluation of tumor material was only possible for 3 animals because the fourth mouse already experienced a complete remission at time of section (which means that the best responding animal was not available for evaluation). […]
# mice was performed only with the endpoint overall survival. For cisplatin and 8, the […]
# was performed. […]
# experimental group contained four animals). Tumor volumes were calculated as described in the experimental part. […]
# Figure S5: Apoptosis and mitosis levels in tumors after the treatment with compound 8, 11 and 12 in comparison to cis- and oxaliplatin: CT-26 cells were injected subcutaneously into the right flank of male BALB/c mice. […] The fractions of apoptotic and mitotic cells were evaluated by counting (4 pictures per sample, at least 300 cells per picture were counted). […]
# The statistical significance was calculated by One-Way Anova and is indicated with asterisks (* P < 0.05; ** P < 0.01; *** P < 0.001).
# [5] = tested on: subcutaneous CT-26 tumors
# [6] = target: T2, human serum albumin (HSA) (Homo sapiens, UniProt P02768); experiment: Albumin-binding rate by RP-HPLC (decrease of unbound drug peak area); conditions: 1 eq. of HSA used
# T2 construct: purchased Sigma Aldrich
# T2 sequence (P02768 25-609): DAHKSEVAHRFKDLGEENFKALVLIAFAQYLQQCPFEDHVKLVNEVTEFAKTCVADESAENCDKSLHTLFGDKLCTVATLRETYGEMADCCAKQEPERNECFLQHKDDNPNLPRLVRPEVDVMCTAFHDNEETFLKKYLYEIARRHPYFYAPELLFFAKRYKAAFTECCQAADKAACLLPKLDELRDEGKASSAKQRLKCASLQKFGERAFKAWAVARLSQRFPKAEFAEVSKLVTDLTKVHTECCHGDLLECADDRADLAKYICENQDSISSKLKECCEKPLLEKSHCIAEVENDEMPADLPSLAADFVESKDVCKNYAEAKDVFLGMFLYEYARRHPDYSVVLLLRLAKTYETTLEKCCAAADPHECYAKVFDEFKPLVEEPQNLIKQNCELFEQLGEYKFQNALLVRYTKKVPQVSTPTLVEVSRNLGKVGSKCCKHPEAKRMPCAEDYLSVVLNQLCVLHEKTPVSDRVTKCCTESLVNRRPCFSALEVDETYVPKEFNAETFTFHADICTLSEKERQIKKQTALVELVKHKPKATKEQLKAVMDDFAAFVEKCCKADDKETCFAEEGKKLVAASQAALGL
# Method: Next, the binding of the maleimide-functionalized complexes to the thiol group of human serum albumin (HSA) was investigated. Therefore, compounds 7–8 and 11–12 were incubated with HSA and the decrease of the peak area of the unbound drug was monitored (Fig. 2B, Table S19 ^†).
# as §1, §2, §3
# [7] = female BALB/c mice, 9 mg kg^–1 i.v. twice a week
smiles,measurement,setting,value
CC(=O)[O][Pt]([NH2])([NH2])([Cl])([Cl])[O]C(=O)NCCN1C(=O)CCC1=O [Compound 10],"reduction by ascorbic acid, cisplatin-derived vs oxaliplatin-based",[1],reduced much faster
same,"stability towards reduction, acetato vs methoxido ligand",[1],more stable
same,protein binding ability,[2]; during 21 h,negligible protein binding ability
same,changes in aqueous solution,[3]; over a period of 24 hours,no changes
N.N.[Cl][Pt][Cl] [cisplatin],Pt conc. in serum,"[4]; Mouse #1, serum 24 h after single i.v. treatment",48 µg/L
same,Pt conc. in serum,"[4]; Mouse #2, serum 24 h after single i.v. treatment",46 µg/L
same,Pt conc. in serum,"[4]; Mouse #3, serum 24 h after single i.v. treatment",43 µg/L
same,Pt conc. in serum,"[4]; Mouse #4, serum 24 h after single i.v. treatment",44 µg/L
O=C1[O][Pt]2([NH][C@@H]3CCCC[C@H]3[NH]2)[O]C1=O [oxaliplatin],apoptotic cell fraction in tumors,CT-26 tumors,highest
same,adverse effects,[5]; [7],very strong adverse effects
same,anticancer activity,[5]; [7],widely ineffective
same,onset of activity,"[5]; male BALB/c mice, i.v. twice a week, equimolar to 9 mg kg^–1 oxaliplatin",8 days
"C[O][Pt]([NH2])([NH2])([Cl])([Cl])[O]C(=O)NCCN1C(=O)C=CC1=O [Compound 7, (OC-6-44)-Diamminedichloridomethoxido[2-(2,5-dioxo-2,5-dihydro-1H-pyrrol-1-yl)ethylcarbamato]platinum(IV)]",drug bound to the albumin fraction,"[2]; 100 µM, first scan (∼5–10 min after incubation)",~50%
same,hydrolysis in aqueous solution,"[3]; aqueous solution, 20°C",less than 1 % h^–1
same,Albumin-binding half-life λ1/2,[6],5.1 h

# Reference: publication PMC5409245, “An albumin-based tumor-targeted oxaliplatin prodrug with distinctly improved anticancer activity in vivo” (Chemical Science, 2016)
